Tests used:
[1] = biological target: T1, HIV reverse transcriptase (RNase H activity) (Human immunodeficiency virus type 1 group M subtype B, UniProt P04585); assay: Inhibition of RNase H / HIV reverse transcriptase (fluorescent probe-target hybrid assay); type: biochemical; details: Table I
T1 construct: HIV reverse transcriptase has an RNase H domain at the C-terminus of its p66 subunit
Source text: RNase H is an enzyme responsible for the removal of RNA primers from leading and lagging strands during DNA synthesis. It is an important enzyme for the replication of bacterial, viral and human genomes. HIV reverse transcriptase has an RNase H domain at the C-terminus of its p66 subunit. […] The ability of the compounds of the present invention to inhibit RNase H, and more particularly HIV reverse transcriptase, may be measured or determined by any means known in the art.
Preferably, the RNase H/HIV reverse transcriptase modulatory activity of the compounds of the present invention may be determined by the methods described in a copending U.S. provisional patent Application No. 60/436,125, filed Dec. 19, 2002 and PCT Publication No. WO 2004/059012, filed Dec. 22, 2003, published Jul. 15, 2004, entitled ASSAY FOR RNase ACTIVITY of Olson et al., incorporated herein by reference in their entirety. Specifically, the modulatory activity of a hydantoin derivative of the present invention may be determined by hybridizing a target nucleic acid to a fluorescently labeled oligonucleotide probe complementary to the target nucleic acid and containing a fluorophor at one terminus and a quenching group at the other terminus to obtain a probe-target hybrid, wherein (i) the unhybridized probe adopts a conformation that places the fluorophor and quencher in such proximity that the quencher quenches the fluorescent signal of the fluorophor, and (ii) the formation of the probe-target hybrid causes sufficient separation of the fluorophor and quencher to reduce quenching of the fluorescent signal of the fluorophor. Next, a first and second sample containing the probe-target hybrid are prepared. The probe-target hybrid of the first sample is then contacted with an RNase H enzyme (such as HIV reverse transcriptase) in an amount sufficient to selectively cleave the target nucleic acid and thereby release the intact probe. The probe-target hybrid of the second sample is also contacted with the RNase H enzyme in an amount sufficient to selectively cleave the target nucleic acid and thereby release the intact probe in the presence of a hydantoin derivative of the present invention. The release of the probe in each sample may then be detected by measuring the […] in the fluorescent signal of the fluorophor as compared to the signal of the probe-target hybrid. A comparison of the rate of the decrease in the fluorescent signal of the fluorophor in the two samples is made to determine whether there is a difference in the rate of the decrease in the two samples. […] This method is also useful to identify hydantoin derivatives of the present invention, wherein candidate hydantoin derivatives are screened for their ability to modulate RNase/HIV reverse transcriptase activity.

[2] = biological target: T2, HIV reverse transcriptase (RDDP polymerase activity) (Human immunodeficiency virus type 1 group M subtype B, UniProt P04585); assay: RNA dependent DNA polymerase (RDDP) activity of HIV RT, polyrA-oligodT12-18 / 33P TTP incorporation; type: biochemical
T2 construct: HIV Reverse transcriptase (RT) 66/p51; purchased Worthington

SMILES | IC50 [1] | IC50 [2]
O=C(c1ccccc1)N1C(=O)N2CCc3ccccc3C2(c2ccccc2)C1=O (stereo not shown) [2-benzoyl-10b-phenyl-6,10b-dihydro-5H-imidazo[5,1-a]isoquinoline-1,3-dione] | 63 µM | 
O=C1NC(c2ccccc2)(c2ccccc2)C(=O)N1CCCBr [3-(3-bromopropyl)-5,5-diphenyl-2,4-imidazolidinedione] | 56 µM | > 146 µM
Cc1cc(C(=O)N2C(=O)NC(C)(c3ccccc3)C2=O)ccc1Cl (stereo not shown) [3-(4-chloro-3-methylbenzoyl)-5-methyl-5-phenylimidazolidine-2,4-dione] | 100 µM | 
Cc1ccc(C(=O)C(C)N2C(=O)NC(C)(c3ccccc3)C2=O)cc1Cl (stereo not shown) [3-[2-(3-chloro-4-methylphenyl)-1-methyl-2-oxoethyl]-5-methyl-5-phenyl-2,4-imidazolidinedione] | 51 µM | > 103 µM
CC1(c2ccccc2)NC(=O)N(C(=O)/C=C/c2ccc(Cl)c(Cl)c2)C1=O (stereo not shown) [3-[(2E)-3-(3,4-dichlorophenyl)prop-2-enoyl]-5-methyl-5-phenylimidazolidine-2,4-dione] | 52 µM | > 107 µM
CC1(c2ccccc2)NC(=O)N(C(=O)/C=C/c2ccc(F)c(C(F)(F)F)c2)C1=O (stereo not shown) [3-{(2E)-3-[4-fluoro-3-(trifluoromethyl)phenyl]prop-2-enoyl}-5-methyl-5-phenylimidazolidine-2,4-dione] | 99 µM | > 115 µM
CCC1(c2ccc(C)cc2)N=C(O)N=C1O (stereo not shown) [4-ethyl-4-(4-methylphenyl)-4H-imidazole-2,5-diol] | 4 µM | > 184 µM
C=CN1C(=O)NC(C)(C)C1=O [5,5-dimethyl-3-vinyl-imidazolidine-2,4-dione] | 50 µM | > 107 µM
O=C1NC(=O)C(=Cc2cc(Cl)cc(Cl)c2O)N1 [5-(3,5-Dichloro-2-hydroxy-benzylidene)-imidazolidine-2,4-dione] | 57 µM | > 102 µM
O=C1NC(=O)C(=Cc2cc(Br)cc(Br)c2O)N1 [5-(3,5-dibromo-2-hydroxy-benzylidene)-imidazolidine-2,4-dione] | 13 µM | > 111 µM
CCC1(c2ccc(Br)cc2)NC(=O)NC1=O (stereo not shown) [5-(4-bromo-phenyl)-5-ethyl-imidazolidine-2,4-dione] | 64 µM | 
Cc1ccc(C2(C3CC3)NC(=O)NC2=O)cc1C (stereo not shown) [5-cyclopropyl-5-(3,4-dimethyl-phenyl)-2,4-imidazolidinedione] | 41 µM | > 122 µM
CC1(c2ccccc2)NC(=O)N(C(=O)/C=C/c2ccccc2)C1=O (stereo not shown) [5-methyl-5-phenyl-3-[(2E)-3-phenylprop-2-enoyl]imidazolidine-2,4-dione] | 46 µM | > 260 µM
CC1(C)SC2C(NC(=O)C(NC(=O)CN3C(=O)NC(c4ccccc4)(c4ccccc4)C3=O)c3ccccc3)C(=O)N2C1C(=O)O (stereo not shown) [6-[{[{(2,5-dioso-4,4-diphenylimidazolidin-1-yl)acetyl]amino}(phenyl)acetyl]amino}-3,3-dimethyl-7-oxo-4-thia-1-azabicyclo[3.2.0]heptane-2-carboxylic acid] | 4 µM | > 62 µM
C[C@]1(c2ccccc2)NC(=O)N(C(=O)/C=C/c2ccc(C(F)(F)F)cc2)C1=O [(5R)-5-methyl-5-phenyl-3-{(2E)-3-[4(trifluoromethyl)phenyl]prop-2-enoyl]imidizolidine-2,4-dione] | 58 µM | > 105 µM
CC[C@@]1(c2ccc(C)cc2)NC(=O)NC1=O [(5S)-5-ethyl-5-(4-methylphenyl)imidazolidine-2,4-dione] | 2 µM | > 180 µM
C[C@@]1(c2ccccc2)NC(=O)N(C(=O)/C=C/c2ccc(C(F)(F)F)cc2)C1=O [(5S)-5-methyl-5-phenyl-3-{(2E)-3-[4-(trifluoromethyl)phenyl]prop-2-enoyl}imidazolidine-2,4-dione] | 98 µM | > 100 µM
Cc1cn([C@H]2C[C@H](N=[N+]=[N-])[C@@H](CO)O2)c(=O)[nH]c1=O [AZT, reference compound] |  | < 0.2 µM
CC(C)(C)OC(=O)N1C(=O)N(C(=O)OC(C)(C)C)C2(CCN(Cc3ccccc3)CC2)C1=O [di(tert-butyl) 8-benzyl-2,4-dioxo-1,3,8-triazaspiro[4.5}decane-1,3-dicarboxylate] | 87 µM | > 103 µM

From patent publication US20050203156A1, “Hydantoins having RNase modulatory activity” (Wyeth, priority 2004, published 2005)
